Test results taken from patent US8658131B2, “Compounds comprising 4-benzoylpiperidine as a sigma-1-selective ligand” (Washington University, priority 2010, dated 2014).
Like-named read-outs stand apart in the source and are kept apart here.

Key:
σ2 receptor = target: T1, σ2 receptor (Rattus norvegicus, UniProt Q5U3Y7); assay: σ2 receptor binding assay, [3H]DTG, rat liver membrane homogenates; set-up: conducted using rat liver membrane homogenates; from tissue; host or cells: rat liver membrane homogenates
T1 sequence (Q5U3Y7 1-176): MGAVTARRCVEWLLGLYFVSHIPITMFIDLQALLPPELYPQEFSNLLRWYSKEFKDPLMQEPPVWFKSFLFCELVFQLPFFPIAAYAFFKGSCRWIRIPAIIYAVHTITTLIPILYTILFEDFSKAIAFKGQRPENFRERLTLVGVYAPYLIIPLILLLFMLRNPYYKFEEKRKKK
Method: The compounds were dissolved in DMF, DMSO, or ethanol, and then diluted in 50 mM Tris-HCl buffer containing 150 mM NaCl and 100 mM EDTA at pH 7.4, prior to performing the σ1 and σ2 receptor binding assays.
The incubation time was 2 h at room temperature. Nonspecific binding was determined from samples that contained 10 μM of cold haloperidol. All other procedures were identical to those described for the σ1 receptor binding assay above.
Ki values were calculated using the method of Cheng and Prusoff and are presented as the mean (±1 SEM).

σ1 receptor = target: T2, σ1 receptor (Cavia porcellus, UniProt Q60492); assay: σ1 receptor binding assay, (+)-[3H]pentazocine, guinea pig brain membranes; settings: Table 4, Ki values of VAChT specific compounds; tissue not given; read-out: Sigma-1 σ1
T2 construct: using guinea pig brain membrane homogenates; from tissue; host or cells: guinea pig brain membrane homogenates
T2 sequence (Q60492 whole entry): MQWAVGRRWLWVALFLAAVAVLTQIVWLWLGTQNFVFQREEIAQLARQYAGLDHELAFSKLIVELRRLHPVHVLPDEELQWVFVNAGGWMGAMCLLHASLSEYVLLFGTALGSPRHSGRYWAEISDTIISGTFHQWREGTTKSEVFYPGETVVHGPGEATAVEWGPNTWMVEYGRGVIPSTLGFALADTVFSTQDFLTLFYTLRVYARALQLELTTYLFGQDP

[1] = target: T3, human vesicular acetylcholine transporter (VAChT) (Homo sapiens, UniProt Q16572); assay: VAChT binding assay, (−)-[3H]vesamicol, human VAChT expressed in PC12 cells; settings: Table 4, Ki values of VAChT specific compounds; source not given; read-out: VAChT
T3 construct: expressed in transfected cells; host or cells: PC12 A123.7 cells (crude extract / homogenized, partially clarified cells)
T3 sequence (Q16572 1-532): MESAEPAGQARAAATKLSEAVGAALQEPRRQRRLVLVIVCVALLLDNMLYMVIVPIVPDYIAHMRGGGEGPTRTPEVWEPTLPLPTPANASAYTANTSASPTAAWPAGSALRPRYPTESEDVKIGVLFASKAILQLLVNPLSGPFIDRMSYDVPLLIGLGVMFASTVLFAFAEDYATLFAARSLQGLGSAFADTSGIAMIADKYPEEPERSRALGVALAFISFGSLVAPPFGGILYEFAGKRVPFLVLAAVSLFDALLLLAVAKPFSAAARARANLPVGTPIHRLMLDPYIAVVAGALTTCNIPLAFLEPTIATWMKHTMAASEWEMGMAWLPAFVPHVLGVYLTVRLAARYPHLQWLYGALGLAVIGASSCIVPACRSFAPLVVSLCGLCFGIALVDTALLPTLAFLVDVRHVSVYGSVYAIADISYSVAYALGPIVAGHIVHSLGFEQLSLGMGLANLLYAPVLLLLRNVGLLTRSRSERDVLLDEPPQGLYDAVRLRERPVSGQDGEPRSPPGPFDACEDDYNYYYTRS

[2] = Table 4, Ki values of VAChT specific compounds, tissue not given, read-out: Sigma-2 σ1

Compound	Ki (σ2 receptor; [2]) [µM]	Ki (σ1 receptor) [µM]	Ki [1] [µM]	Ki (σ2 receptor; homogenates of rat liver, mean ± SEM, read-out: σ2 (Ki)) [µM]
COc1ccc(C(=O)N2CCC(O)C(N3CCC(C(=O)c4ccc(F)cc4)CC3)C2)cc1 (stereo not drawn) [WW-1-35]	> 10	–	–	–
O=C(c1ccc(F)cc1)C1CCN(C2CN(C(=O)c3ccccc3)CCC2O)CC1 (stereo not drawn) [WW-1-39]	3.95 ± 0.278	–	–	–
COc1ccc(C(=O)C2CCN(C3CN(C(=O)c4ccccc4)CCC3O)CC2)cc1 (stereo not drawn) [WW-1-67]	4.85 ± 0.649	–	–	–
COc1ccc(C(=O)C2CCN(C3CN(C(=O)c4ccc(F)cc4)CCC3O)CC2)cc1 (stereo not drawn) [WW-1-107]	2.6 ± 0.363	–	–	–
COc1ccc(C(=O)C2CCN(C3CN(Cc4ccccc4)CCC3O)CC2)cc1 (stereo not drawn) [WW-1-109]	8.54 ± 1.9	0.208 ± 0.053	0.0355 ± 0.0111	–
O=C(c1ccc(F)cc1)C1CCN(C2CN(C(=O)c3ccc(F)cc3)CCC2O)CC1 (stereo not drawn) [WW-1-123]	1.38 ± 0.135	–	8.7 ± 1.62	–
COc1ccc(C(=O)C2CCN(C3CN(C(=O)c4cccnc4)CCC3O)CC2)cc1 (stereo not drawn) [WW-III-13]	24.3 ± 1.91	–	–	–
COc1ccc(C(=O)C2CCN(C3CN(C(=O)c4ccc(C)s4)CCC3O)CC2)cc1 (stereo not drawn) [WW-III-17]	24.4 ± 3.63	–	–	–
COc1ccc(C(=O)C2CCN(C3CN(C(=O)c4cccs4)CCC3O)CC2)cc1 (stereo not drawn) [WW-III-21]	6.38 ± 1	–	–	–
COc1ccc(C(=O)C2CCN(C3CN(Cc4cccnc4)CCC3O)CC2)cc1 (stereo not drawn) [WW-III-25]	17.1 ± 3.86	2.23 ± 0.168	0.107 ± 0.0111	–
Cc1ccsc1C(=O)N1CCC(O)C(N2CCC(C(=O)c3ccc(F)cc3)CC2)C1 (stereo not drawn) [WW-III-39]	4.22 ± 0.205	–	–	–
Cc1ccc(C(=O)N2CCC(O)C(N3CCC(C(=O)c4ccc(F)cc4)CC3)C2)s1 (stereo not drawn) [WW-III-41]	16.4 ± 1.48	–	–	–
O=C(c1ccc(F)cc1)C1CCN(C2CN(C(=O)c3cccs3)CCC2O)CC1 (stereo not drawn) [WW-III-43]	4.05 ± 0.244	–	–	–
O=C(c1ccc(F)cc1)C1CCN(C2CN(C(=O)c3cccnc3)CCC2O)CC1 (stereo not drawn) [WW-III-45]	15.5 ± 2.17	–	0.807 ± 0.139	–
O=C(c1ccc(F)cc1)C1CCN(C2CN(Cc3cccnc3)CCC2O)CC1 (stereo not drawn) [WW-III-47]	13 ± 2.63	1.16 ± 0.128	0.237 ± 0.0414	–
(4′-Hydroxy-1′-(pyridin-4-ylmethyl)-[1,3′-bipiperidin]-4-yl)(4-methoxyphenyl)methanone [Compound 16h]	–	–	–	17.1 ± 3.86
